Legend:
[1] = system: Cellulolytic Enzyme Composition #1; experiment: mini-scale PCS hydrolysis by Cellulolytic Enzyme Composition #1; type: biochemical, Trichoderma reesei; conditions: 10 mM FeSO4; 43 g PCS and 0.25 g enzyme per liter, pH 5, 50° C.
Procedure: (§1) The effect of various salts (FeSO4, FeCl2, NaCl, Na2SO4, MnSO4, MnCl2) was determined in the hydrolysis of PCS by Cellulolytic Enzyme Composition #2. The PCS hydrolysis was performed in duplicate in capped 1.7 ml EPPENDORF® tubes (“mini-scale”) containing 1 ml suspensions of 43.4 g of PCS (dry weight) per liter, 10 mM salts in 50 mM sodium acetate pH 5. Cellulolytic Enzyme Composition #2 was added at 0.25 g per liter. Reactions without the addition of the salt served as controls. The capped tubes were incubated at 50° C. in an INNOVA® 4080 incubator shaker (New Brunswick Scientific Co., Inc., Edison, N.J., USA) at 150 rpm.
Aliquots of the suspensions, sampled over time, were filtered by centrifugation using a 0.45 μm MULTISCREEN® HV membrane (Millipore, Billerica, Mass., USA) at 2000 rpm for 15 minutes using a SORVALL® RT7 centrifuge (Thermo Fisher Scientific, Waltham, Mass., USA). When not used immediately, the filtered sugary aliquots were frozen at −20° C. Sugar concentrations of the samples diluted in 0.005 M H2SO4 were measured after elution from a 4.6×250 mm AMINEX® HPX-87H column (Bio-Rad, Hercules, Calif., USA) by 0.005 M H2SO4 at a flow rate of 0.4 ml/minute at 65° C. with quantitation by integration of glucose and cellobiose using refractive index detection (CHEMSTATION®, AGILENT® 1100 HPLC, Agilent Technologies, Santa Clara, Calif., USA) calibrated with standards of glucose and cellobiose. The resultant equivalents were used to calculate the percentage of cellulose conversion for each reaction.
Example 30 was repeated with both Cellulolytic Enzyme Composition #1 and Cellulolytic Enzyme Composition #2. Soluble reducing sugars were measured by HPLC as described in Example 30. Reactions without the addition of FeSO4 served as controls.
The hydrolysis was performed in a series of duplicate “mini-scale” hydrolysis reactions according to the procedure described in Example 30.

[2] = molecular target: T1, Trichoderma reesei Cel7A cellobiohydrolase I (Trichoderma reesei, UniProt P62694); experiment: PASC hydrolysis by Cel7A cellobiohydrolase I; type: biochemical; conditions: 10 mM FeSO4; 2 g PASC and 40 mg enzyme per liter (FIG. 20A)
T1 construct: made in house
T1 sequence (P62694 18-513): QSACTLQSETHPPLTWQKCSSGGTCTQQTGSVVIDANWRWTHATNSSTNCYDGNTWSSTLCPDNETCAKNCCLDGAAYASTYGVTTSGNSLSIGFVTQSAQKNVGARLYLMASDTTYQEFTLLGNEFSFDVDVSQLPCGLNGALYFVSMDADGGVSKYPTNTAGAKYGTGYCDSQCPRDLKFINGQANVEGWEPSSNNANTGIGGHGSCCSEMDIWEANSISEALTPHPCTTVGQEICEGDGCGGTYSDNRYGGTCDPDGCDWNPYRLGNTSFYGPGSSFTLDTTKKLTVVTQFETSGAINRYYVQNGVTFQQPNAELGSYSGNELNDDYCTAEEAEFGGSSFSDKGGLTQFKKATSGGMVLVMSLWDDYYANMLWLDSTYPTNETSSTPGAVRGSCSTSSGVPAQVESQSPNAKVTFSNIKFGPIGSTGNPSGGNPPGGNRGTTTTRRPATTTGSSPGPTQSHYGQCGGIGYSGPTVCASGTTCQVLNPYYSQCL

[3] = molecular target: Trichoderma reesei Cel6A cellobiohydrolase II (Trichoderma reesei, UniProt P07987); conditions: 10 mM FeSO4; 2 g PASC and 40 mg enzyme per liter (FIG. 20B)
Sequence of Trichoderma reesei Cel6A cellobiohydrolase II (P07987 25-471): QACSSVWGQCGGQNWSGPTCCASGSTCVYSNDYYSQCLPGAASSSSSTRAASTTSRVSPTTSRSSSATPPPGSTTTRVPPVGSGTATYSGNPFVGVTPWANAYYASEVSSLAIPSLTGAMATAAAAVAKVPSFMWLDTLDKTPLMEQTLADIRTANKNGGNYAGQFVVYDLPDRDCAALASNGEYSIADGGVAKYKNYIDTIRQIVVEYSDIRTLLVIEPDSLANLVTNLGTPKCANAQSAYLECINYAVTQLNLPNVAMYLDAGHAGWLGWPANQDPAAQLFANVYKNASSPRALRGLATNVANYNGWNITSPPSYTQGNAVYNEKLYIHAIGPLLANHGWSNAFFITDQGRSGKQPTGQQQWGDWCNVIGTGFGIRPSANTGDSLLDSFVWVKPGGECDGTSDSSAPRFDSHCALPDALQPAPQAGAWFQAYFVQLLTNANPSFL
Procedure: The inhibitory effect of ferrous ion was determined on Trichoderma reesei Cel7A cellobiohydrolase I, Trichoderma reesei Cel6A cellobiohydrolase II, Trichoderma reesei Cel7B endoglucanase I, and Trichoderma reesei Cel5A endoglucanase II using PASC as substrate.
A series of duplicate “mini-scale” hydrolysis reactions were performed according to the procedure described in Example 30, except that 10 mM FeSO4 and 2 g of PASC (dry weight) and 40 mg of enzyme per liter of 50 mM sodium acetate pH 5 were used.

[4] = system: Cellulolytic Enzyme Composition #1; experiment: mini-scale AVICEL hydrolysis by Cellulolytic Enzyme Composition #1; type: biochemical, Trichoderma reesei
Procedure: FIGS. 19A, 19B, 19C, and 19D show the effective inhibitory concentration range of Fe(II) on the hydrolysis of AVICEL® by Cellulolytic Enzyme Composition #1 (A and B) and on the hydrolysis of PASC by Cellulolytic Enzyme Composition #1 (C and D). The AVICEL® hydrolysis was conducted with […] of AVICEL® and 0.25 g of Cellulolytic Enzyme Composition #1 per liter of 50 mM sodium acetate pH 5 at 50° C. FeSO4 (mM): (∘) 0, (+) 1, (Δ) 3, (⋄) 5, (□) 10. Dixon plot linear regression line: 1/Rate=(0.035±0.003)[Fe(II)]+(0.043±0.015), r^2=0.978. Rate was estimated from the hydrolysis difference (%) at 24 and 6 hours. The PASC hydrolysis was conducted with 2 g of PASC and 50 mg of Cellulolytic Enzyme Composition #1 per liter of 50 mM sodium acetate pH 5 at 50° C. Dixon plot linear regression line: 1/Rate=(0.0042±0.0003)[Fe(II)]+(0.059±0.002), r^2=0.994. Rates were estimated from the hydrolysis difference (%) at 7 hours.
as §1
In one series of “mini-scale” hydrolysis reactions performed according to the procedure described in Example 30, the effect of 1 mM to 10 mM FeSO4 was evaluated in the hydrolysis of AVICEL® by Cellulolytic Enzyme Composition #1.

In the case of Ferrous sulfate [FeSO4], the “Effect on PCS hydrolysis” value [1] is reported as “significantly inhibited”, the Effect on enzyme [2] is reported as “significantly inhibited” and the Effect on enzyme [3] is reported as “significantly inhibited”. For the same substance, the “Concentration dependence of inhibition” value ([4]; 1 mM to 10 mM FeSO4, AVICEL (FIG. 19A)) was “increasingly inhibitory” and the Ki ([4]; on AVICEL, 23 g AVICEL and 0.25 g enzyme per liter, read-out: Ki (x-intercept of Dixon plot)) was roughly 1300 µM.
